Measurements as given in patent US20260217701A1, “SELECTIVE BET INHIBITORS AND USES THEREOF” (Tay Therapeutics Limited, priority 2022, published 2026).
Values joined by “and” are separate entries in the source; they are usually repeats but may differ in a detail not shown here. Equal values may be shown once.

Test system: imiquimod-induced psoriasis
Assay: Imiquimod-induced psoriasis model
Type: in vivo, mice
Conditions: for Body Weight D1: Day 1 (before treatment start on Day 8); for Body Weight D1 / Body Weight D3 / Body Weight D5 / Body Weight D7 / Body Weight D8 / Body Weight D9 / Body Weight D10 / Body Weight D11 / Body Weight D12 / Body Weight D13 / Body Weight D14 / Body Weight D15 / MBWC D1-D8 / MBWC D8-D15 / PASI Scores: individual animals; for Body Weight D3: Day 3 (before treatment start on Day 8); for Body Weight D5: Day 5 (before treatment start on Day 8); for Body Weight D7: Day 7 (before treatment start on Day 8); for Body Weight D8: Day 8 (first day of treatment); for Body Weight D9: Day 9; for Body Weight D10: Day 10; for Body Weight D11: Day 11; for Body Weight D12: Day 12; for Body Weight D13: Day 13; for Body Weight D14: Day 14; for Body Weight D15: Day 15; for MBWC D1-D8: body weight change Day 1 to Day 8 (before treatment); for MBWC D8-D15: body weight change Day 8 to Day 15 (treatment period); for PASI Scores: IMI + Compound B 1 mg/kg
How it was run: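 Mice given topical imiquimod (5% cream) daily on depilated backs Days 1–14; Compound A in 5% DMSO/40% PEG-400/55% saline from Day 8, clobetasol topical as reference. Daily PASI (erythema, induration, peeling, each 0–4, summed) Days 8–15; spleen weight, open-field behaviour, serum IL-1B, IL-6, IL-17, TNF-α, IL-22, IL-23 at Day 15.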

[1] = IMI + 1 mg/kg, 1 mg/kg, in g (unit assumed)
[2] = IMI + 3 mg/kg, 3 mg/kg, in g (unit assumed)
[3] = IMI + 10 mg/kg, 10 mg/kg, in g (unit assumed)

## COCCn1cc(-c2ccccc2)c(-c2cn(C)c(=O)c3[nH]c(-c4cnn(C(F)(F)F)c4)cc23)cc1=O [Compound B, 4-(1-(2-methoxyethyl)-2-oxo-5-phenyl-1,2-dihydropyridin-4-yl)-6-methyl-2-(1-(trifluoromethyl)-1H-pyrazol-4-yl)-1,6-dihydro-7H-pyrrolo[2,3-c]pyridin-7-one]
10 mg/kg (printed 10 mg/ml)
  symptoms by day 15 (representative images): nearly entirely symptom free
1, 3, 10 mg/kg, 10 mg/kg most effective
  mean PASI score on day 15, dose dependence: dose-dependent decrease in PASI scores
2 lowest doses of 1.0 and 3.0 mg/kg bw
  efficacy on the treatment of psoriasis: moderate efficacy
IMI + 1 mg/kg, 1 mg/kg
  Body Weight D1: 17.85 and 16.71 and 18.14 (2×) and 17.67 and 18.64 and 18.37 and 17.36
  Body Weight D13: 16.53 and 14.84 and 18.05 and 16.45 (2×) and 17.04 (2×) and 16.34
  MBWC D1-D8: −2.02 and −1.37 and −0.60 and −1.09 and −1.03 and −2.14 and −1.01 and −0.69
  MBWC D8-D15: 0.51 and −0.67 and 0.47 and 0.04 and −0.32 and 0.21 and −0.23 and −0.09
[1]
  Body Weight D3: 16.05 and 15.75 and 16.34 and 16.73 and 17.52 and 16.25 and 15.31 and 17.36
  Body Weight D5: 15.71 and 15.27 and 17.54 and 16.77 and 17.97 and 16.83 and 15.98 and 16.57
  Body Weight D7: 16.02 and 15.76 and 17.96 and 17.02 and 17.69 and 17.48 and 16.75 and 17.68
  Body Weight D8: 15.83 and 15.34 and 17.54 and 16.58 and 17.61 and 16.23 and 16.35 and 17.45
  Body Weight D9: 15.70 and 15.29 and 17.68 and 16.64 and 17.26 and 15.94 and 16.69 and 17.21
  Body Weight D10: 15.94 and 15.03 and 17.60 and 16.38 and 17.13 and 16.08 and 15.92 and 17.66
  Body Weight D11: 16.10 and 14.61 and 17.64 and 16.08 and 17.41 and 16.29 and 16.64 and 17.72
  Body Weight D12: 16.03 and 14.93 and 17.80 and 16.29 and 17.39 and 16.49 and 16.17 and 17.53
  Body Weight D14: 16.38 and 14.75 and 18.20 and 16.97 and 17.80 and 16.16 and 16.37 and 17.46
  Body Weight D15: 16.34 and 14.67 and 18.01 and 16.62 and 17.29 and 16.44 and 16.12 and 17.36
[2]
  Body Weight D1: 16.04 and 18.93 and 17.71 and 17.81 and 16.63 and 17.34 and 17.52 and 18.08
  Body Weight D3: 13.11 and 16.65 and 15.84 and 16.79 and 15.99 and 16.64 and 14.93 and 16.90
  Body Weight D5: 14.01 and 16.29 and 15.26 and 17.65 and 16.66 and 17.47 and 16.35 and 16.80
  Body Weight D7: 14.25 and 16.26 and 15.31 and 17.34 and 16.40 and 17.79 and 16.44 and 16.80
  Body Weight D9: 13.93 and 15.56 and 15.22 and 17.78 and 16.23 and 17.14 and 15.89 and 16.28
  Body Weight D11: 13.97 and 16.26 and 15.22 and 17.70 and 16.63 and 16.90 and 16.81 and 17.13
  Body Weight D12: 14.44 and 16.57 and 15.46 and 17.60 and 17.05 and 16.97 and 16.65 and 17.68
  Body Weight D13: 13.94 and 16.60 and 15.54 and 17.74 and 16.71 and 17.05 and 16.35 and 17.58
  Body Weight D14: 13.70 and 16.12 and 15.70 and 17.96 and 17.04 and 17.47 and 16.08 and 17.19
IMI + 3 mg/kg, 3 mg/kg
  Body Weight D8: 13.57 and 15.67 and 15.44 and 17.59 and 16.51 (2×) and 17.07 and 16.13
  Body Weight D10: 14.23 and 15.76 (2×) and 17.87 and 16.28 and 17.32 and 15.99 and 16.22
  Body Weight D15: 13.78 and 16.88 and 15.93 and 18.05 and 17.29 (2×) and 17.08 and 15.94
  MBWC D1-D8: −2.47 and −3.26 and −2.27 and −0.22 and −0.12 and −0.27 and −1.39 and −1.57
  MBWC D8-D15: 0.21 and 1.21 and 0.49 and 0.46 and 0.78 (2×) and 0.01 and −0.19
[3]
  Body Weight D1: 18.66 and 16.97 and 17.99 and 16.59 and 14.70 and 18.45 and 16.88 and 17.79
  Body Weight D5: 16.85 and 16.05 and 17.14 and 16.55 and 13.95 and 16.19 and 15.85 and 16.46
  Body Weight D8: 16.51 and 15.56 and 18.14 and 16.14 and 14.02 and 16.16 and 15.50 and 16.26
  Body Weight D9: 16.61 and 15.20 and 17.85 and 15.85 and 13.92 and 15.86 and 15.31 and 16.41
  Body Weight D10: 16.48 and 15.64 and 18.33 and 16.10 and 13.59 and 15.70 and 15.00 and 15.80
  Body Weight D11: 16.44 and 15.87 and 17.94 and 16.30 and 14.37 and 16.54 and 16.26 and 16.95
  Body Weight D12: 16.63 and 16.40 and 18.54 and 16.96 and 14.74 and 16.69 and 16.23 and 17.34
  Body Weight D13: 17.12 and 16.52 and 18.44 and 16.93 and 14.68 and 16.17 and 16.27 and 16.95
  Body Weight D14: 17.36 and 16.91 and 18.32 and 17.28 and 15.12 and 16.21 and 16.48 and 17.35
  Body Weight D15: 18.01 and 16.93 and 18.51 and 17.31 and 15.47 and 16.86 and 16.66 and 17.96
IMI + 10 mg/kg, 10 mg/kg
  Body Weight D3: 16.89 and 15.12 (2×) and 16.64 and 15.35 and 12.66 and 15.18 and 15.47
  Body Weight D7: 17.09 and 15.74 and 18.31 and 16.60 and 14.04 and 16.64 (2×) and 16.00
  MBWC D1-D8: −2.15 and −1.41 and 0.15 and −0.45 and −0.68 and −2.29 and −1.38 and −1.53
  MBWC D8-D15: 1.50 and 1.37 and 0.37 and 1.17 and 1.45 and 0.70 and 1.16 and 1.70
D8 (day treatment started)
  PASI Scores: 7 (2×) and 6 (3×) and 8 (3×)
D9
  PASI Scores: 8 (3×) and 9 and 5 (3×) and 6
D10
  PASI Scores: 6 (4×) and 5 (2×) and 7 (2×)
D11
  PASI Scores: 8 and 6 (4×) and 4 and 7 and 9
D12
  PASI Scores: 6 (6×) and 4 and 5
